Reference: ChEMBL document CHEMBL5154882, “Discovery of 4-Hydroxyquinazoline Derivatives as Small Molecular BET/PARP1 Inhibitors That Induce Defective Homologous Recombination and Lead to Synthetic Lethality for Triple-Negative Breast Cancer Therapy” (J Med Chem, 2022)

How the values were obtained:
[1] = Toxicity in BALB/c nude mouse xenografted with human MDA-MB-468 cells assessed as morphological changes in lung at 80 mg/kg, ig administered daily for 16 days measured every 3 days by hematoxyin-eosin staining based analysis; format: organism-based; settings: in vivo, po, 384 h, time 16 day
[2] = Toxicity in BALB/c nude mouse xenografted with human MDA-MB-468 cells assessed as morphological changes in kidney at 40 to 80 mg/kg, ig administered daily for 16 days measured every 3 days by hematoxyin-eosin staining based analysis; format: organism-based; settings: in vivo, po, 384 h, dose 40-80 mg/kg, time 16 day
[3] = target: Poly [ADP-ribose] polymerase 1 (Homo sapiens, UniProt P09874)
Sequence of Poly [ADP-ribose] polymerase 1 (P09874 whole entry): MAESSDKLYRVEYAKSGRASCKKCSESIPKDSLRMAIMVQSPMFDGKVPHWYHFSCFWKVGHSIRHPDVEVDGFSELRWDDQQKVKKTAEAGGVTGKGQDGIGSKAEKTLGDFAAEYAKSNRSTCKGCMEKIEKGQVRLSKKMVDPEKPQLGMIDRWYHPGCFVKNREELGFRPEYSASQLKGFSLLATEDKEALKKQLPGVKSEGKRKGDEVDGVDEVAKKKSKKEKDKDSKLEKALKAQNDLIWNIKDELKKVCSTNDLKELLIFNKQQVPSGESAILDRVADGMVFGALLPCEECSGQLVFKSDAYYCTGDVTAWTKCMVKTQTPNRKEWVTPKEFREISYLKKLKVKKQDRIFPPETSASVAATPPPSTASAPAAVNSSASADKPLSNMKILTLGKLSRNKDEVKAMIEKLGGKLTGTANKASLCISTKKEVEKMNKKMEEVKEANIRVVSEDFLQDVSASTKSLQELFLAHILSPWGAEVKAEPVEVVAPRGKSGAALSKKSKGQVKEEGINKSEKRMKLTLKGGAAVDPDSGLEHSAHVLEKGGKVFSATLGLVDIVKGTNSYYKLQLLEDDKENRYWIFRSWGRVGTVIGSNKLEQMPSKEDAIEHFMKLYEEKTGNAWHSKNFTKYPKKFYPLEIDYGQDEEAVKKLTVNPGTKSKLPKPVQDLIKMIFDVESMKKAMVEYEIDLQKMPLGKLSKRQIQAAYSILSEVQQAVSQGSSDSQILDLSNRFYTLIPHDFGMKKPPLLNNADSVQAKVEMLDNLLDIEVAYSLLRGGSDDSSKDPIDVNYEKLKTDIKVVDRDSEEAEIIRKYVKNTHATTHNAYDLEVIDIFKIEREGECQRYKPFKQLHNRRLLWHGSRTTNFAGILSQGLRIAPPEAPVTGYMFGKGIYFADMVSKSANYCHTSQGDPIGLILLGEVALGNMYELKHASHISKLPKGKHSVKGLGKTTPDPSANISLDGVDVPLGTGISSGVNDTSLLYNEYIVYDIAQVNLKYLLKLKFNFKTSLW
Description: Inhibition of PARP1 (unknown origin)

COc1cc(OC)c2c(=O)[nH]c(-c3cccc(Cc4n[nH]c(=O)c5ccccc45)c3)nc2c1
Activity [1]: Non-Toxic | Activity [2]: Non-Toxic | IC50 [3]: 197 nM
